The values that follow come from patent US12622914B2, “Pharmaceutical rectal suppository compositions of 6-thioguanine, methods of treatment and/or methods of manufacturing” (Douglas Pharmaceuticals Ltd., priority 2023, dated 2026).

Structures are written as SMILES.

One data set deals with induced colitis. Particulars: mice lacking the enzyme HPRT, treatment with 6-thioguanine; cited from earlier work.
Data set [1] in a line: Particle size distribution (Malvern Mastersizer 3000). The data set is classed as physicochemical. The conditions noted are these: dispersed in n-heptane containing 0.1% span 80 pre-saturated with 6-thioguanine. As to the method: The particles size distribution of the API alone and in the rectal suppository formulations was measured using a Malvern Mastersizer 3000 (Hydro SM). The samples were dispersed in n-heptane containing 0.1% span 80 pre-saturated with 6-thioguanine (to reduce any dissolution of the 6-thioguanine particles in the samples).

Regarding `Nc1nc(=S)c2[nH]cnc2[nH]1` [6-thioguanine, 2-amino-1H-purine-6(7H)-thione], in the data set on induced colitis, the “reduction in induced colitis” value is “rapid and appreciable reduction in induced colitis”.

Consider `Nc1nc(=S)c2[nH]cnc2[nH]1` [B, 6-thioguanine], for which, in data set [1], the D10 is given as 5.3 μm, the D50 was found to be 69.1 μm and the D90 is 267.0 μm.

In data set [1], `Nc1nc(=S)c2[nH]cnc2[nH]1` [Sample A, 6-thioguanine] showed a D10 of 5.4 μm, a D50 of 66.8 μm and a D90 of 261.0 μm.

As to `Nc1nc(=S)c2[nH]cnc2[nH]1` [Sample C, 6-thioguanine], in data set [1], the D10 was 2.9 μm, the D50 was 9.0 μm and the D90 worked out at 151.0 μm. In data set [1] (listed as Batch C), this compound registered a D10 of 2.9 μm, a D50 of 9.0 μm and a D90 of 151.0 μm.
